Measured values taken from US11612595B2, “Compositions and methods for treating rheumatoid arthritis” (Generos Biopharma Ltd., priority 2017, dated 2023).
pIC50: −log10 of the molar value.

Key:
SH2 domain of STAT3 = SH2 domain of STAT3 (Homo sapiens, UniProt P40763); details: read-out: IC50 towards the SH2 domain of STAT3; cited from earlier work
STAT3 = STAT3 (Homo sapiens, UniProt P40763); details: Daudi cells; cited from earlier work
[1] = weight changes in rat AIA model; assay type: in vivo, rats
Experimental: FIG. 4 is a graph depicting weight changes in four groups of rat AIA models under different treatment schemes. Vehicle refers to the group of AIA model rats treated with DMSO. Therapeutic refers to the group of AIA model rats treated with pimozide (Sigma-Aldrich) 10 mg/kg in 30% PEG300 solution starting from day 13. Prophylactic refers to the group of AIA model rats treated with pimozide (Sigma-Aldrich) 10 mg/kg in 30% PEG300 solution starting from day 0. Normal refers to the group of rats without AIA model inducement.
Three groups (10 rats in each group) of female rats (age 8 weeks) were subject to AIA model induction and then to different treatment schemes. Specifically, 100 ug mBSA mixed with CFA was injected s.c. to flank near tail, and one dose of B. pertusiss was injected i.p. the next day to boost the immune reaction. The first of the three groups of rats were treated with DMSO (Vehicle). The second of the three groups of rats were treated with pimozide (Sigma-Aldrich) 10 mg/kg of body weight (same unit are used throughout this application) in 30% PEG300 solution via intraperitoneal injection with collagen injection starting from day 7 (Therapeutic). The last of the three groups of rats were treated with pimozide (Sigma-Aldrich) 10 mg/kg in 30% PEG300 solution via intraperitoneal injection either with collagen injection starting from day 0. […]

Chain of STAT3 (P40763 whole entry): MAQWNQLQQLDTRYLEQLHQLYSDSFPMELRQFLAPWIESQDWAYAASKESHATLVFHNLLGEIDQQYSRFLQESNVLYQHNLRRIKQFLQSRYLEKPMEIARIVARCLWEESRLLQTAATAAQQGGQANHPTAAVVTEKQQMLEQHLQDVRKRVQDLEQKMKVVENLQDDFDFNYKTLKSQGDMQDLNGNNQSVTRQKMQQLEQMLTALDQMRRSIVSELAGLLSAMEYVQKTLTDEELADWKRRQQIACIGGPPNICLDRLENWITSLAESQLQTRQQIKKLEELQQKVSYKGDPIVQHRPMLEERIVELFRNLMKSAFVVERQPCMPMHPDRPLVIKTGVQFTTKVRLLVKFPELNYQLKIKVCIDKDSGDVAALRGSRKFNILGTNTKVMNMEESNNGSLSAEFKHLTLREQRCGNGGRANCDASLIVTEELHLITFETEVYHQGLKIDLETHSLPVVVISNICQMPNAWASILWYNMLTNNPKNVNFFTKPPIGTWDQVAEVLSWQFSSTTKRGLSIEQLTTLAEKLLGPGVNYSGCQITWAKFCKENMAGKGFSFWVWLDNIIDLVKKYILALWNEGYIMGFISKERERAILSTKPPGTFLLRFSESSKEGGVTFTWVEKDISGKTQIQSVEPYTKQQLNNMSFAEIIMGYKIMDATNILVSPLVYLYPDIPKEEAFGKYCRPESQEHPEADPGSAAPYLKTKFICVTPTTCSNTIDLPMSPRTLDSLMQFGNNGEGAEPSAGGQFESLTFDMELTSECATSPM
Chain of SH2 domain of STAT3 (P40763 whole entry, the tested form may be a part): as the sequence (P40763 whole entry) above

weight changes vs Vehicle ([1]; Prophylactic group, 10 mg/kg i.p. from day 0, at each time point)	weight changes vs Vehicle ([1]; Therapeutic group, 10 mg/kg i.p., at each time point)	Structure (SMILES)	pIC50 (SH2 domain of STAT3)	IFN-α-stimulated STAT3 tyrosine phosphorylation (STAT3)
		O=C(N/N=C/c1coc2ccccc2c1=O)c1cccnc1 [nicotinohydrazide, N′-((4-Oxo-4H-chromen-3-yl)methylene)nicotinohydrazide]	< 3.30	not
No significant difference	No significant difference	O=c1[nH]c2ccccc2n1C1CCN(CCCC(c2ccc(F)cc2)c2ccc(F)cc2)CC1 [pimozide, 1-[1-[4,4-bis(4-fluorophenyl)butyl]-4-piperidinyl]-1,3-dihydro-2H-benzimidazole-2-one]		
